pKi: −log10 of the molar value.
Experiments:
[1] = target: Prostaglandin G/H synthase 2 (Rattus norvegicus, UniProt P35355)
Vasopressin V1a receptor = Vasopressin V1a receptor (Rattus norvegicus, UniProt P30560)
[2] = target: Muscarinic acetylcholine receptor M5 (Rattus norvegicus, UniProt P08911)
[3] = target: Beta-1 adrenergic receptor (Rattus norvegicus, UniProt P18090)
[4] = target: 5-hydroxytryptamine receptor 7 (Rattus norvegicus, UniProt P32305)
[5] = target: Alpha-2C adrenergic receptor (Rattus norvegicus, UniProt P22086)
[6] = target: Melatonin receptor type 1A (Rattus norvegicus, UniProt P49218)
Chain of Melatonin receptor type 1A (P49218 whole entry): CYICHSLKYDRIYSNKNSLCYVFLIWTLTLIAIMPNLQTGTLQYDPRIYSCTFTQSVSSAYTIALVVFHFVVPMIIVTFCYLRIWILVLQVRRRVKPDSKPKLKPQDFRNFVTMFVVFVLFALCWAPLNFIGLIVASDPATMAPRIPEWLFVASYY

[7] = target: Neuropeptide Y receptor type 2 (Rattus norvegicus, UniProt Q9ERC0)
Chain of Neuropeptide Y receptor type 2 (Q9ERC0 whole entry): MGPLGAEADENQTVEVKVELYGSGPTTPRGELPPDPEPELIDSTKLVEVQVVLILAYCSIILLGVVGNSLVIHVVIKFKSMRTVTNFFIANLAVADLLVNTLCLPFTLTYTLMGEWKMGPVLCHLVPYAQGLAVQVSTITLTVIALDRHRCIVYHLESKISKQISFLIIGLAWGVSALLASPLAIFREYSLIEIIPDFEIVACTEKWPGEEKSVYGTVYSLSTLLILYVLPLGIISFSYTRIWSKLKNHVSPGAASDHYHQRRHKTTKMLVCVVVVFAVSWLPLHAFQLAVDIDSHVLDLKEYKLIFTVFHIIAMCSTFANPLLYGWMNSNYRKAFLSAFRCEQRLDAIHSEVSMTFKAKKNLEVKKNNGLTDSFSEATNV

[8] = target: Amine oxidase [flavin-containing] B (Rattus norvegicus, UniProt P19643)
[9] = target: Norepinephrine transporter (Rattus norvegicus, UniProt Q9JIA2)
[10] = target: Bombesin receptor subtype-3 (Rattus norvegicus, UniProt Q8K418)
Vasopressin V2 receptor = Vasopressin V2 receptor (Rattus norvegicus, UniProt Q00788)
Substance-K receptor = Substance-K receptor (Rattus norvegicus, UniProt P16610)
[11] = target: Gastrin/cholecystokinin type B receptor (Rattus norvegicus, UniProt P30553)
Chain of Gastrin/cholecystokinin type B receptor (P30553 whole entry): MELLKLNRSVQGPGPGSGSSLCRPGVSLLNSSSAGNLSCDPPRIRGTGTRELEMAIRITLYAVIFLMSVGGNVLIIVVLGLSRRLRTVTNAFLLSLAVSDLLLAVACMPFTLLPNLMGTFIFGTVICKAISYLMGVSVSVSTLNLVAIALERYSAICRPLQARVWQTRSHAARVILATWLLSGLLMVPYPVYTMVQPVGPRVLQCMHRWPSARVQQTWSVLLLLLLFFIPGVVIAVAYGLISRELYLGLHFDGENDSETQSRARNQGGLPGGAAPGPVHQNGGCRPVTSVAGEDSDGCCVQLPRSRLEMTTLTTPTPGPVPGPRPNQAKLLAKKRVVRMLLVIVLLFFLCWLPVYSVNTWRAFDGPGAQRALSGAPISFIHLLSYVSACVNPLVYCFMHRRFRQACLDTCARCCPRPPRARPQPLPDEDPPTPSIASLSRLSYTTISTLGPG

D(2) dopamine receptor = D(2) dopamine receptor (Rattus norvegicus, UniProt P61169)
Cannabinoid receptor 1 = Cannabinoid receptor 1 (Rattus norvegicus, UniProt P20272)
[12] = target: 5-hydroxytryptamine receptor 3A (Rattus norvegicus, UniProt P35563)
D(3) dopamine receptor = D(3) dopamine receptor (Rattus norvegicus, UniProt P19020)
Pro-neuropeptide Y = Pro-neuropeptide Y (Rattus norvegicus, UniProt P07808)
[13] = target: Muscarinic acetylcholine receptor M4 (Rattus norvegicus, UniProt P08485)
[14] = target: Glutamate receptor ionotropic, kainate 1 (Rattus norvegicus, UniProt P22756)
Histamine H2 receptor = Histamine H2 receptor (Rattus norvegicus, UniProt P25102)
Substance-P receptor = Substance-P receptor (Rattus norvegicus, UniProt P14600)
[15] = target: Kappa-type opioid receptor (Rattus norvegicus, UniProt P34975)
Chain of Kappa-type opioid receptor (P34975 whole entry): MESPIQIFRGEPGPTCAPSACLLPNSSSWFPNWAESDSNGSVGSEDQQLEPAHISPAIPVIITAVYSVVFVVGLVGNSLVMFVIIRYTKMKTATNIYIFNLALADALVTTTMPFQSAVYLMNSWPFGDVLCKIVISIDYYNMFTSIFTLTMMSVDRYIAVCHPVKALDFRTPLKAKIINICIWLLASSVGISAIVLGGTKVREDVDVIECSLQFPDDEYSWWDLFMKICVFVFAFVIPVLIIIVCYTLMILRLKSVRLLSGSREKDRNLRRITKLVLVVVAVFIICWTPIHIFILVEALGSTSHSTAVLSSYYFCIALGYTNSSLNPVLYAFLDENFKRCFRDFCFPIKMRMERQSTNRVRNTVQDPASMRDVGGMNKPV

Endothelin-1 receptor = Endothelin-1 receptor (Rattus norvegicus, UniProt P26684)
Interleukin-1 alpha = Interleukin-1 alpha (Rattus norvegicus, UniProt P16598)
Chain of Interleukin-1 alpha (P16598 115-270 limits assumed): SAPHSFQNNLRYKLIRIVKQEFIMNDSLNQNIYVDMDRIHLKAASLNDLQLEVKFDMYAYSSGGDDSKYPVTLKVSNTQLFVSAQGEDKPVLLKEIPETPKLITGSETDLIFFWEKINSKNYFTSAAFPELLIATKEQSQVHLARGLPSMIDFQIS

Galanin peptides = Galanin peptides (Rattus norvegicus, UniProt P10683)
Chain of Galanin peptides (P10683 33-61 limits assumed): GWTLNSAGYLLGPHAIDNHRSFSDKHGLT

[16] = target: Prostaglandin G/H synthase 1 (Rattus norvegicus, UniProt Q63921)
Chain of Prostaglandin G/H synthase 1 (Q63921 whole entry): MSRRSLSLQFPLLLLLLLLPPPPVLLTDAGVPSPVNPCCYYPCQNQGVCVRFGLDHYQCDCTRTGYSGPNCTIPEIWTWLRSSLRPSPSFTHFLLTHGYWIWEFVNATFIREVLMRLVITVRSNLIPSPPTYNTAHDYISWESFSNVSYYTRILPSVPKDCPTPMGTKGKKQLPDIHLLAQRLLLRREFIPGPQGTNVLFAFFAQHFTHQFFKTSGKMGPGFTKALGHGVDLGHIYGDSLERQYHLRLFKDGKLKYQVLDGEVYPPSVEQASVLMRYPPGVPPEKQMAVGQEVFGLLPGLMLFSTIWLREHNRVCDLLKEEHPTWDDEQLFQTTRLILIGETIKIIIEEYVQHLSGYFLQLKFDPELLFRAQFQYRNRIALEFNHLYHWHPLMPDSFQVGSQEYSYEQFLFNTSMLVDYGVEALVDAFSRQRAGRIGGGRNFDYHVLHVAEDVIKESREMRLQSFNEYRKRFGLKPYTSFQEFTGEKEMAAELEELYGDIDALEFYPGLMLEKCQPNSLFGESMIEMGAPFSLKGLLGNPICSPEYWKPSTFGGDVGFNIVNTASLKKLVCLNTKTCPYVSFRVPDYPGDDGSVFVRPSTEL

[17] = target: Gamma-aminobutyric acid (GABA) B receptor 1 (Rattus norvegicus, UniProt Q6MFX8)
[18] = target: 5-hydroxytryptamine receptor 5A (Rattus norvegicus, UniProt P35364)
Prostacyclin receptor = Prostacyclin receptor (Rattus norvegicus, UniProt P43253)
[19] = target: Calcium release-activated calcium channel protein 1 (Homo sapiens, UniProt Q96D31)
Chain of Calcium release-activated calcium channel protein 1 (Q96D31 whole entry): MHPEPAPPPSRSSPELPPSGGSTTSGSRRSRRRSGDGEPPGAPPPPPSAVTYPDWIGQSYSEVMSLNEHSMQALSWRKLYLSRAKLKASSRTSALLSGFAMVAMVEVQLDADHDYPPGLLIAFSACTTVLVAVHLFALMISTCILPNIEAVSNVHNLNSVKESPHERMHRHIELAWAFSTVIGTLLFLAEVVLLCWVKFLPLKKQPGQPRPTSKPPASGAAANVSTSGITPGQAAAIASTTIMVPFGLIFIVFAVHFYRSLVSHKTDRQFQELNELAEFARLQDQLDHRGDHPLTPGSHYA

D(4) dopamine receptor = D(4) dopamine receptor (Rattus norvegicus, UniProt P30729)
[20] = target: 5-hydroxytryptamine receptor 6 (Rattus norvegicus, UniProt P31388)
Chain of 5-hydroxytryptamine receptor 6 (P31388 whole entry): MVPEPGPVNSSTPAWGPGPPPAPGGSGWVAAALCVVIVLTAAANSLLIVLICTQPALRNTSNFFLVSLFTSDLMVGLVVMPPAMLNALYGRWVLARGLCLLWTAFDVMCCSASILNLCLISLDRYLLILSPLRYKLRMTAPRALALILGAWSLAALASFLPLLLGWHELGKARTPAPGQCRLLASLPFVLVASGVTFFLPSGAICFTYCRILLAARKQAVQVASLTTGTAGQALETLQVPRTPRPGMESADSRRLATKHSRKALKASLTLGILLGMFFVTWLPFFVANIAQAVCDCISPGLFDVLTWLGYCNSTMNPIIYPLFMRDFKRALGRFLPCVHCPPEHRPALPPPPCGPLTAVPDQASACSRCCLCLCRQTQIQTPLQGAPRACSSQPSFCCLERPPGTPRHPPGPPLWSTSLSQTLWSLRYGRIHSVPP

Cannabinoid receptor 2 = Cannabinoid receptor 2 (Rattus norvegicus, UniProt Q9QZN9)
[21] = target: Voltage-dependent L-type calcium channel subunit alpha-1C (Rattus norvegicus, UniProt P22002)
Thromboxane A2 receptor = Thromboxane A2 receptor (Rattus norvegicus, UniProt P34978)
[22] = target: Chloride channel protein 1 (Rattus norvegicus, UniProt P35524)
Chain of Chloride channel protein 1 (P35524 whole entry): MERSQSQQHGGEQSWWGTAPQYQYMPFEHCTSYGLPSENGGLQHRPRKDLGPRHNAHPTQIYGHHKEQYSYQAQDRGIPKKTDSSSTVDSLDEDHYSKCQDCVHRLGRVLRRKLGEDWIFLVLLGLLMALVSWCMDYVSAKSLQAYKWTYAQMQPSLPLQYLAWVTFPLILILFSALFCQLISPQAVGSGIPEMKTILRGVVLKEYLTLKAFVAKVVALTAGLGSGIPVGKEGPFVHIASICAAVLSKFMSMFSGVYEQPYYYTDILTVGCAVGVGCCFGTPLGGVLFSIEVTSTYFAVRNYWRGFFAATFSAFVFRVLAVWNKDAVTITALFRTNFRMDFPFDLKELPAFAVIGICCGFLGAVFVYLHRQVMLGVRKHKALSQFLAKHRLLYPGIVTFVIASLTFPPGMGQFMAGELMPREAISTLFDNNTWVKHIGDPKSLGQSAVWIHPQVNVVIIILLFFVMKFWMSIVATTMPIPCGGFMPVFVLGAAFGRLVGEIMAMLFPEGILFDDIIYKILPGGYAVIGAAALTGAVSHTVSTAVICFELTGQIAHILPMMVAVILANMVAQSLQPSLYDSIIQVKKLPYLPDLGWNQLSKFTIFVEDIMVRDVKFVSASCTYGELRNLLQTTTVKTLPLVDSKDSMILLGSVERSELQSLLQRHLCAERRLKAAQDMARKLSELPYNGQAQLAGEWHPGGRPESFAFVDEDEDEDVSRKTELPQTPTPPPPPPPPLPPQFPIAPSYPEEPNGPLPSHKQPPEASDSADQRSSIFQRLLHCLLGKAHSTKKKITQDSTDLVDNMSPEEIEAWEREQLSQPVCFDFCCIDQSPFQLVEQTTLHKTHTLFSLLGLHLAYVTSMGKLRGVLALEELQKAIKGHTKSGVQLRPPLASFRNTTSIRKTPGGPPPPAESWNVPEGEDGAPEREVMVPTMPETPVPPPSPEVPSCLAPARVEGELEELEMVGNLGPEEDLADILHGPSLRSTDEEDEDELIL

5'-nucleotidase = 5'-nucleotidase (Rattus norvegicus, UniProt P21588)
[23] = target: Alpha-1A adrenergic receptor (Rattus norvegicus, UniProt P43140)

Chain of Beta-1 adrenergic receptor (P18090 whole entry): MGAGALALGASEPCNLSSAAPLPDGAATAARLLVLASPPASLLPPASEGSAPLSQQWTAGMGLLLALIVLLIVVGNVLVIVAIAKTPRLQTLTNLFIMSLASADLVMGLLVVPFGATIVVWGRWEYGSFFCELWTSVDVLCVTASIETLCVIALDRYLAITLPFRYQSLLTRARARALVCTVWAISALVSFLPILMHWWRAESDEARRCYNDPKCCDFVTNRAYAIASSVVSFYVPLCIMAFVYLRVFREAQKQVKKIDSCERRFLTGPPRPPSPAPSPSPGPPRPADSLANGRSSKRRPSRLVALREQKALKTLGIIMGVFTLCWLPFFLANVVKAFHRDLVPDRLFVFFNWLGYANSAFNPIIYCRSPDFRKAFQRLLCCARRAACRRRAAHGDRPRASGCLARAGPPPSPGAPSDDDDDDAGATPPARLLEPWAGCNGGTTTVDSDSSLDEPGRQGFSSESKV
Chain of Vasopressin V1a receptor (P30560 whole entry): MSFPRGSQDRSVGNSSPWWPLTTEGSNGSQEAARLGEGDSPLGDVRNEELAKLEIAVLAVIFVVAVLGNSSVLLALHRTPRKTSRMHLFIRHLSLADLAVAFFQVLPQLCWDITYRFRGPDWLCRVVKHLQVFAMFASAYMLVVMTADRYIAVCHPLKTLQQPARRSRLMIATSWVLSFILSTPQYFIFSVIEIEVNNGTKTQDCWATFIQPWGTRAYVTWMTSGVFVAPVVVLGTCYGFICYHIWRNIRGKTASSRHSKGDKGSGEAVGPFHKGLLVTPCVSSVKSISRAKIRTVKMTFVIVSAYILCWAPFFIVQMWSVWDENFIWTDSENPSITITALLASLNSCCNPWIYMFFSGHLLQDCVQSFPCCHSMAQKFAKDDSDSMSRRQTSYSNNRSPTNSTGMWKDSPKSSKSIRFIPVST

- pKi [1]: < 5.00
- pKi (Vasopressin V1a receptor): < 5.00
- pKi [2]: < 5.00
- pKi [3]: < 5.00
- pKi [4]: < 5.00
- pKi [5]: < 5.00
- pKi [6]: < 5.00
- pKi [7]: < 5.00
- pKi [8]: < 5.00
- pKi [9]: < 5.00
- pKi [10]: < 5.00
- pKi (Vasopressin V2 receptor): < 5.00
- pKi (Substance-K receptor): 5.07
- pKi [11]: < 5.00
- pKi (D(2) dopamine receptor): < 5.00
- pKi (Cannabinoid receptor 1): < 5.00
- pKi [12]: < 5.00
- pKi (D(3) dopamine receptor): < 5.00
- pKi (Pro-neuropeptide Y): < 5.00
- pKi [13]: < 5.00
- pKi [14]: < 5.00
- pKi (Histamine H2 receptor): < 5.00
- pKi (Substance-P receptor): < 5.00
- pKi [15]: 5.34
- pKi (Endothelin-1 receptor): < 5.00
- pKi (Interleukin-1 alpha): < 5.00
- pKi (Galanin peptides): < 5.00
- pKi [16]: < 5.00
- pKi [17]: < 5.00
- pKi [18]: < 5.00
- pKi (Prostacyclin receptor): < 5.00
- pKi [19]: < 5.00
- pKi (D(4) dopamine receptor): < 5.00
- pKi [20]: < 5.00
- pKi (Cannabinoid receptor 2): < 5.00
- pKi [21]: < 5.00
- pKi (Thromboxane A2 receptor): < 5.00
- pKi [22]: < 5.00
- pKi (5'-nucleotidase): < 5.00
- pKi [23]: < 5.00
SMILES: Nc1ncnc2nc(-c3ccc(N4CCOCC4)nc3)cc(-c3cccc(Br)c3)c12

— BindingDB's records for PubMed 11082453 (Abbott Laboratories, 2000)
